For series [1], the target named is EGFR (pY1068) in H1975 cell (T790M/L858R) (Homo sapiens (Human), UniProt P00533, L858R/T790M). In words: pEGFR sandwich ELISA assay (Examples B-2, B-3, Table 21). The conditions noted are these: for IC50: read-out: IC50 (uM) H1975 T790M/L858R (no EGF stimulation). The series is classed as cell-based.
The target in series [2] is EGFR (pY1068) in A431 cell (WT) (Homo sapiens (Human), UniProt P00533). The description is as above. The conditions noted are these: read-out: IC50 (uM) A431 WT (EGF stimulation). The series is classed as cell-based.
The subject of series [3] is A431 (WT) human skin epidermoid carcinoma xenograft. Conditions: for Tumor volume: 100 mpk PO QD. The protocol: Each mouse was inoculated subcutaneously at the right flank with H1975 cells (5×10^6), HCC827 (5×10^6) and A431 (5×10^6) respectively in 0.2 ml of medium for tumor development. The treatments were started when the tumor size reached approximately 200-250 mm^3. The testing articles were administrated to the mice according to the predetermined regimen as shown in the experimental design table.
All the procedures related to animal handling, care and the treatment in this study were performed according to the guidelines approved by the Institutional Animal Care and Use Committee (IACUC) following the guidance of the Association for Assessment and Accreditation of Laboratory Animal Care (AAALAC). At the time of routine monitoring, the animals were checked for any effects of tumor growth and treatments on normal behavior such as mobility, food and water consumption (by observation), body weight gain/loss (body weights were measured twice weekly), eye/hair matting and any other abnormal effect. Death and observed clinical signs were recorded on the basis of the numbers of animals within each subset.
The major endpoint was to see if the tumor growth can be delayed or mice can be cured. Tumor size was measured twice weekly in two dimensions using a caliper, and the volume was expressed in mm^3 using the formula: V=0.5 a×b^2 where a and b are the long and short diameters of the tumor, respectively. The tumor size was then used for calculations of both T-C and T/C values. T-C was calculated with T as the median time (in days) required for the treatment group tumors to reach a predetermined size (e.g., 1,000 mm^3), and C as the median time (in days) for the control group tumors to reach the same size. The T/C value (in percent) was an indication of antitumor effectiveness; T and C were the mean volume of the treated and control groups, respectively, on a given day. Tumor weight was measured at the study termination. The T/C value (in percent) was calculated where T and C were the mean tumor weights of the treated and control groups, respectively.

For another series, the target named is human wt JAK3 (Homo sapiens (Human), UniProt P52333). In words: ClariCELL JAK3 cell-based assay. Conditions: Cell-based Assays (CAI) IC50(μM) JAK3, HEK293 transfected with human wt JAK3; 2 hours; repeat runs.
A further series addresses human wt BTK (Homo sapiens (Human), UniProt Q06187). Briefly: ClariCELL BTK cell-based assay. The conditions noted are these: Cell-based Assays (CAI) IC50(μM) BTK, HEK293 transfected with human wt BTK; 2 hours; repeat runs.
Another series has as its target JAK3 (Homo sapiens (Human), UniProt P52333). Briefly: HotSpot kinase assay. The class given is biochemical. Conditions: Enzymatic Assays; Table 22; unit inferred. The protocol: (§1) Assay Description. In vitro profiling protein kinases was performed using the “HotSpot” assay platform. Briefly, specific kinase/substrate pairs along with required cofactors were prepared in reaction buffer. Compounds were delivered into the reaction, followed 15-20 minutes later by addition of a mixture of ATP (Sigma, St. Louis Mo.) and ^33P ATP (Perkin Elmer, Waltham Mass.) to a final concentration of 10 μM. […] IC50 values and curve fits were obtained using Prism (GraphPad Software).
(§2) Reaction Conditions: Buffer Conditions: 20 mM Hepes (pH 7.5), 10 mM MgCl2, 1 mM EGTA, 0.02% Brij35, 0.02 mg/mL BSA, 0.1 mM Na3VO4, 2 mM DTT, and 1% DMSO. ATP concentration: 10 μM. Reaction Time: 2 hours. […] All kinase reactions were performed at 10 uM ATP. Test concentrations are provided below in molar units (M).

Another series addresses BTK (Homo sapiens (Human), UniProt Q06187). Briefly: HotSpot kinase assay. The class given is biochemical. The conditions noted are these: Enzymatic Assays; Table 22; unit inferred. On the procedure: as §1, §2
A further series addresses JAK2 (Homo sapiens (Human), UniProt O60674). In words: HotSpot kinase assay. The series is classed as biochemical. The conditions noted are these: Enzymatic Assays; Table 22; unit inferred. The protocol: as §1, §2

This is an account of results in patent publication US9586965B2, “Pyrrolo[2,3-d]pyrimidine compounds as inhibitors of protein kinases” (ACEA BIOSCIENCES INC., priority 2012, dated 2017).

“And” between values parts separate entries of the source, which are not always exact repeats. Equal values may be shown once. Read-outs that look alike come from different tables or passages of the source. Some results are limits rather than exact numbers.

EGFR (pY1068) in A431 cell (WT), sequence (P00533 25-1210): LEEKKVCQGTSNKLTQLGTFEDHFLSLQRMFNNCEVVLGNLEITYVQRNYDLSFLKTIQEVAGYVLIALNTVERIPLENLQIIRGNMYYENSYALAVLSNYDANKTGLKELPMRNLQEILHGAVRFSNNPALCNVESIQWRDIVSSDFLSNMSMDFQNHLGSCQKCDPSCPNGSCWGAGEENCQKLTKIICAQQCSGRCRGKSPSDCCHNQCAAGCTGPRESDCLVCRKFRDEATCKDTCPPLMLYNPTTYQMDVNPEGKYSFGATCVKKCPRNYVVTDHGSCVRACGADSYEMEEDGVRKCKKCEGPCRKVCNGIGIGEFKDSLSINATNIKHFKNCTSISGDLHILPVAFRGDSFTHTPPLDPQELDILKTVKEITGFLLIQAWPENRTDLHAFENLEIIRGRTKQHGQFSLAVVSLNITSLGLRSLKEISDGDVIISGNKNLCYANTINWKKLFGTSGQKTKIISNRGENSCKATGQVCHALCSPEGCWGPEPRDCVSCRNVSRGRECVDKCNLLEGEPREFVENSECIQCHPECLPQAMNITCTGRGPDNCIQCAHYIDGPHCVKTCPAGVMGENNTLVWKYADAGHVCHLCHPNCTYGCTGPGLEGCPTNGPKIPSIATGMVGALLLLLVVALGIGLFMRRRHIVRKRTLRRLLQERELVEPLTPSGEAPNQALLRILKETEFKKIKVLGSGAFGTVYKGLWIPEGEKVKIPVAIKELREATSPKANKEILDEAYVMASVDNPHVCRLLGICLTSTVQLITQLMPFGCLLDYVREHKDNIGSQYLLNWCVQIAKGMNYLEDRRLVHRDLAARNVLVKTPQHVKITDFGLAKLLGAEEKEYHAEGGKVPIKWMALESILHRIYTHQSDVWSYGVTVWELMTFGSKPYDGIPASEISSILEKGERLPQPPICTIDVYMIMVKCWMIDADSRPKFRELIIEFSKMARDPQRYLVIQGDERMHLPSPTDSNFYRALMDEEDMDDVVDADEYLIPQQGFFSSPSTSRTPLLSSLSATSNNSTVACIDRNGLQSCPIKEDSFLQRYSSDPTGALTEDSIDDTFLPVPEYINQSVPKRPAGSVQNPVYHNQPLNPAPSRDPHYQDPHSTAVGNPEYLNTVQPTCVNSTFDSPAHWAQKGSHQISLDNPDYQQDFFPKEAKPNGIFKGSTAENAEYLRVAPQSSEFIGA
EGFR (pY1068) in H1975 cell (T790M/L858R), sequence (P00533 25-1210 T790M/L858R): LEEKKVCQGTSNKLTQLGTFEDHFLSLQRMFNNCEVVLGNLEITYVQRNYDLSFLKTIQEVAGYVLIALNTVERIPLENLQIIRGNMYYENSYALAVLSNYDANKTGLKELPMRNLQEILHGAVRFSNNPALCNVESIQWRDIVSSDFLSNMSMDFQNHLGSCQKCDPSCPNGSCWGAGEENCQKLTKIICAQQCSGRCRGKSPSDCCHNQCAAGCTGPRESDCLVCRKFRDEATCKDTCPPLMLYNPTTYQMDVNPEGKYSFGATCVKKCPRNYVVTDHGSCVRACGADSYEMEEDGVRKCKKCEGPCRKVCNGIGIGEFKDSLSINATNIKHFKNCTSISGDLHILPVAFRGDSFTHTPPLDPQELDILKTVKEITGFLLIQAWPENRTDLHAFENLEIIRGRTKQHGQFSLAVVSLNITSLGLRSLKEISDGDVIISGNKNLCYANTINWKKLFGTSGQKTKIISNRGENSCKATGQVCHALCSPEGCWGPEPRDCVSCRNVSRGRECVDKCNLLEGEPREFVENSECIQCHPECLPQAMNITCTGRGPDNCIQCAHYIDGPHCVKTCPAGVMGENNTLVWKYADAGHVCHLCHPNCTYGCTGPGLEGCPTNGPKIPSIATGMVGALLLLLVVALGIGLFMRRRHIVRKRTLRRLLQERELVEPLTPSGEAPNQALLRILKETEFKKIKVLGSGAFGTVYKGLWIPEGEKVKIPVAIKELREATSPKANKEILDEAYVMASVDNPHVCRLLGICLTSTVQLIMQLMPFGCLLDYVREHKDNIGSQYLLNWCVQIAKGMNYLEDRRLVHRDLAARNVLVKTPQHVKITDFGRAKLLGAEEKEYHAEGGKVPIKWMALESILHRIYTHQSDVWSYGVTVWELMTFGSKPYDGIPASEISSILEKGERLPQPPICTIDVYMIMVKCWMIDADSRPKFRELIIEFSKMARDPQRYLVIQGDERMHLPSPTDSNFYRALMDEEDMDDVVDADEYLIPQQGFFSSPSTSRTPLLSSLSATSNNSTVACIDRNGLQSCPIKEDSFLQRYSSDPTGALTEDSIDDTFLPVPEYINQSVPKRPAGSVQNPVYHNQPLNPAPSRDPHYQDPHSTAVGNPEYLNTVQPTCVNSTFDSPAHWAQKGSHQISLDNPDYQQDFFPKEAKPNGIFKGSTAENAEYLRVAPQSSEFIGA
human wt BTK, sequence (Q06187 whole entry): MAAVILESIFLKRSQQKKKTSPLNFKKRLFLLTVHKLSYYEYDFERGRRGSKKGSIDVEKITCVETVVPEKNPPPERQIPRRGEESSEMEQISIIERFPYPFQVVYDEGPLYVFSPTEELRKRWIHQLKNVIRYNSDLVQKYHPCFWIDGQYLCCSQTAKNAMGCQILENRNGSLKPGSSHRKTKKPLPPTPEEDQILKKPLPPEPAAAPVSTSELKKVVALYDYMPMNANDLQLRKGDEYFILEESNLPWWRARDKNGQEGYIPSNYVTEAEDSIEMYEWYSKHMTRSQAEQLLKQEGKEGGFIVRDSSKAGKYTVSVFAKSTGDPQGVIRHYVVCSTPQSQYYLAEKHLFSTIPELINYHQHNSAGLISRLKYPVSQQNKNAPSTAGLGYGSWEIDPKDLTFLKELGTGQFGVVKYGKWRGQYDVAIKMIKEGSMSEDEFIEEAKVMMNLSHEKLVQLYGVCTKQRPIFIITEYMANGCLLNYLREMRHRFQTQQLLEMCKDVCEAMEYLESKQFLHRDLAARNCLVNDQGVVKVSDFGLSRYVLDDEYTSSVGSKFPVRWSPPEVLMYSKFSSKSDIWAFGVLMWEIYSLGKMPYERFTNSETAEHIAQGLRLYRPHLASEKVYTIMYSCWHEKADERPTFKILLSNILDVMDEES
human wt JAK3, sequence (P52333 whole entry): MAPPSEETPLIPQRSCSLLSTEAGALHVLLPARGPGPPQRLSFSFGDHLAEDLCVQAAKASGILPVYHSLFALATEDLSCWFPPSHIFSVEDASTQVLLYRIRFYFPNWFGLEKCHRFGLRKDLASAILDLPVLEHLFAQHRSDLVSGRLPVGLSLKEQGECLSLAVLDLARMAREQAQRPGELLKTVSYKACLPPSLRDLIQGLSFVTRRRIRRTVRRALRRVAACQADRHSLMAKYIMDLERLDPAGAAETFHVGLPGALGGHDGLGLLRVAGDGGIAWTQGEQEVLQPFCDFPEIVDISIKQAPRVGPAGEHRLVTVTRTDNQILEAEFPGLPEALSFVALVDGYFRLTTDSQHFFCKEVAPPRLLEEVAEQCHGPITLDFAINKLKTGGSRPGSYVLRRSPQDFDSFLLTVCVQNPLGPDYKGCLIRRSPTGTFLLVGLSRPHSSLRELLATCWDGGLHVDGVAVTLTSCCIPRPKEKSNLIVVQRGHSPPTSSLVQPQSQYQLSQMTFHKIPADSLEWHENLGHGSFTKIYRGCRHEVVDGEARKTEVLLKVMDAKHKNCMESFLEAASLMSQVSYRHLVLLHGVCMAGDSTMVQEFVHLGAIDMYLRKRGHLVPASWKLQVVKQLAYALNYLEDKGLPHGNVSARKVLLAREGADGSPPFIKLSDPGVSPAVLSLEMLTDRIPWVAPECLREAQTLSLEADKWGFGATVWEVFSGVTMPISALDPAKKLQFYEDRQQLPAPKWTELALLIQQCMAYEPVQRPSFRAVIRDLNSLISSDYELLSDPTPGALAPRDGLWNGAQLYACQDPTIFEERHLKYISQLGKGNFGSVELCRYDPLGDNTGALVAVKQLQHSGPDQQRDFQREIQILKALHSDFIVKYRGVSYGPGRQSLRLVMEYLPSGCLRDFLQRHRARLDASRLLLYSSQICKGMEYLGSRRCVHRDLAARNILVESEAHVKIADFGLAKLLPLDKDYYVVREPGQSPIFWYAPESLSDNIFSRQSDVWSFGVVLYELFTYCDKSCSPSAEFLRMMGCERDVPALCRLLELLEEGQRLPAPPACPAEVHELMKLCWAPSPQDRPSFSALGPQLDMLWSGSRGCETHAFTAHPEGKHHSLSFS
BTK, sequence (Q06187 whole entry): as the sequence (Q06187 whole entry) above
JAK2, sequence (O60674 809-1132): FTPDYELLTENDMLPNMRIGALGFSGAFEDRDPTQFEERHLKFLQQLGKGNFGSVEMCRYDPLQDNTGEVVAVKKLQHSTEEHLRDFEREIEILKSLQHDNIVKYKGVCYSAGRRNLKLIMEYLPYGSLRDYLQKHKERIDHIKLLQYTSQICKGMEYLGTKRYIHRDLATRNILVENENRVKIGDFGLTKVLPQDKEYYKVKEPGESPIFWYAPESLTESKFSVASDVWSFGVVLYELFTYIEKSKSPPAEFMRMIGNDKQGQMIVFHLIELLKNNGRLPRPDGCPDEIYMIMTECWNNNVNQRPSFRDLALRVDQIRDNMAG
JAK3, sequence (P52333 781-1124): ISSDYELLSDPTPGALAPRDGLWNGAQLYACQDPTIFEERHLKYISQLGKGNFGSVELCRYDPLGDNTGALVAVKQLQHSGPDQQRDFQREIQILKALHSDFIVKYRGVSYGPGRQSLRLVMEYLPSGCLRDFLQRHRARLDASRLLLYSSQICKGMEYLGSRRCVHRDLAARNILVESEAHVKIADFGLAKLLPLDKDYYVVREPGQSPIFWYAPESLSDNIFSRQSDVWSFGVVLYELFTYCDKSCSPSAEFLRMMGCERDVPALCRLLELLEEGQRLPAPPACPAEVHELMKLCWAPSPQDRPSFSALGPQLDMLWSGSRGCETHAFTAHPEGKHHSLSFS
Excerpt for human wt BTK: (§3) Protocol for ClariCELL™ JAK3 and BTK Assays is described below: • HEK293 human embryonic kidney cells were transiently transfected with either human wt BTK, human wt JAK3, or kinase-dead human JAK3 (for JAK3 negative controls).
Excerpt for human wt JAK3: as §3

Regarding `C=CC(=O)Nc1cccc(Oc2nc(Nc3ccc(N4CCN(C)CC4)nc3)nc3c2ccn3CO)c1` [Compound 5, N-(3-(7-(hydroxymethyl)-2-(6-(4-methylpiperazin-1-yl)pyridin-3-ylamino)-7H-pyrrolo[2,3-d]pyrimidin-4-yloxy)phenyl)acrylamide], the “Selectivity A431/H1975” value in series [1] was 113.17. In addition, the IC50 in series [1] was 0.243 µM; in series [2] it was 27.5 µM.

In the case of `COc1cc2ncnc(Nc3ccc(F)c(Cl)c3)c2cc1OCCCN1CCOCC1` [Gefitinib], the “T-C (days) at 300 mm^3” value in series [3] (100 mg/kg po qd) is >14 days. Moreover, the “T/C (%)” value in series [3] (100 mg/kg po qd) was 8.7%. For the same compound, the “Tumor Weight (g) at day 23(14)” value in series [3] (100 mg/kg po qd) is on record as 0.13 ± 0.03 g. Moreover, the “Mouse Weight (g) at day 25(14)” value in series [3] (100 mg/kg po qd, Mean ± SEM) was 21.56 ± 0.51 g. Further, the “Tumor Size (mm^3) at day 25(14)” value in series [3] (100 mg/kg po qd, Mean ± SEM, Table 16) was determined as 154 ± 33 mm^3. Besides, the Tumor volume in series [3] (day 11, Mean ± SEM) is 239.83 ± 23.30 mm^3; in series [3] (day 18, Mean ± SEM) it was 139.70 ± 26.94 mm^3; in series [3] (day 21, Mean ± SEM) it was 139.70 ± 22.07 mm^3; in series [3] (day 25, Mean ± SEM), 154.79 ± 32.62 mm^3.

With `C=CC(=O)Nc1cccc(Oc2nc(Nc3ccc(N4CCN(C)CC4)c(F)c3)nc3c2ccn3CO)c1` [Compound 6, N-(3-(2-(3-fluoro-4-(4-methylpiperazin-1-yl)phenylamino)-7-(hydroxymethyl)-7H-pyrrolo[2,3-d]pyrimidin-4-yloxy)phenyl)acrylamide], in series [1], the “Selectivity A431/H1975” value is reported as 232.91 and the IC50 was 0.0398 µM. The IC50 in series [2] was found to be 9.27 µM.

With `C=CC(=O)Nc1cccc(Oc2nc(Nc3ccc(N4CCN(C)CC4)cc3)nc3c2ccn3CCF)c1` [Compound 7, N-(3-(7-(2-fluoroethyl)-2-(4-(4-methylpiperazin-1-yl)phenylamino)-7H-pyrrolo[2,3-d]pyrimidin-4-yloxy)phenyl)acrylamide], the IC50 in series [1] is 12.4 µM; in series [2] it was > 20 µM.

Consider `C=CC(=O)Nc1cccc(Oc2nc(Nc3ccc(N4CCN(C)CC4)cc3)nc3c2ccn3CO)c1` [Compound 4, N-(3-((7-(hydroxymethyl)-2-((4-(4-methylpiperazin-1-yl)phenyl)amino)-7H-pyrrolo[2,3-d]pyrimidin-4-yl)oxy)phenyl)acrylamide], for which, in series [1], the “Selectivity A431/H1975” value amounted to 162.69 and the IC50 was 0.067 µM. The IC50 in series [2] stood at 10.9 µM.

Consider `C=CC(=O)Nc1cccc(Oc2nc(Nc3ccc(N4CCN(C)CC4)nc3)nc3[nH]ccc23)c1` [Compound 2, N-(3-(2-(6-(4-methylpiperazin-1-yl)pyridin-3-ylamino)-7H-pyrrolo[2,3-d]pyrimidin-4-yloxy)phenyl)acrylamide], for which the IC50 was 0.2 µM and 0.36 µM on human wt JAK3; 0.001 µM in series [1]; 0.012 µM and 0.059 µM at human wt BTK; 0.0365 nM against JAK3; 0.362 nM at BTK; 2060 nM at JAK2. In addition, the IC50 in series [2] was found to be 0.3 µM. In addition, in series [1], the “Selectivity A431/H1975” value came out at 300.00.

As for `C=CC(=O)Nc1cccc(Oc2nc(Nc3ccc(NC4CN(CCF)C4)cc3OC)nc3[nH]ccc23)c1` [Compound 34, N-(3-(2-(4-(1-(2-fluoroethyl)azetidin-3-ylamino)-2-methoxyphenylamino)-7H-pyrrolo[2,3-d]pyrimidin-4-yloxy)phenyl)acrylamide], in series [1], the “Selectivity A431/H1975” value was 92.95 and the IC50 was 0.0217 µM. Moreover, the IC50 in series [2] is 2.02 µM.
